From patent publication US20230364198A1, “C-Peptide as a Therapy for Patients with Diabetes” (University of Cincinnati, priority 2022, published 2023)
Several values for one entry are separate records, joined by “and”; a condition that tells them apart may be missing. Equal values may be shown once. Entries after “also recorded” stand apart in the source; their conditions may differ. Read-outs that look alike come from different tables or passages of the source. No end group written: not given here.

Key:
adult mongrel dogs = assay: Hyperinsulinemic euglycemic (Pd1) / hypoglycemic (Pd2) clamp with IV C-peptide or saline coinfusion in dogs; type: in vivo, dog; conditions: for glucagon secretion during euglycemic/hyperinsulinemic conditions (words): Pd1, IV C-peptide with insulin vs IV saline with insulin
Procedure: Studies were carried out on 18-hour fasted adult mongrel dogs (21 ± 4 kg; mean ± SD; 5 male, 4 female), aged 12.1 ± 0.6 months and acquired from a US Department of Agriculture-approved vendor. The animals were housed in a facility with a 12-hour light/12-hour dark cycle (lights on at 06:00 hours) and fed once daily a standard chow and meat diet (34% protein, 14.5% fat, 46% carbohydrate, and 5.5% fiber based on dry weight) that was weight maintaining.
Two weeks prior to being studied, each dog underwent surgery under general anesthesia to insert sampling catheters in a femoral artery, the hepatic portal vein, and the left common hepatic vein and to place blood flow probes (Transonic Systems) around the hepatic portal vein and hepatic artery. Two experiments were conducted on each animal, with the first being approximately 15 days after surgery and the second approximately 15 days later. Two days before each experiment, blood was drawn to measure leukocyte and hematocrit counts for each animal. […] On the morning of each experiment, the sampling catheters and flow probes were removed from their subcutaneous pockets under local anesthesia (2% lidocaine, Hospira), and the animal was placed in a Pavlov harness. Intravenous catheters were then inserted into a cephalic and saphenous vein to allow peripheral infusions as necessary. The animal was then allowed to rest for 100 minutes, after which basal samples were collected from the artery and portal and hepatic veins between -20 and 0 minutes.
After the 0-minute sample was collected, experimental period 1 (Pd1) began with the infusion of insulin at 1 mU/kg/min into a leg vein (FIG. 1). At the same time, a leg vein infusion of either canine CPEP (10 pmol/kg/min; AnaSpec) or SAL was also started, and dextrose was infused as needed to maintain euglycemia throughout Pd1 (0-120 minutes). Studies were randomized such that 4 of the 9 dogs received the C-peptide on the first study and the other 5 received saline first. At minute 120, the dextrose infusion was reduced, and the plasma glucose level was allowed to fall to approximately 50 mg/dL, where it was clamped (Pd2; 120-240 minutes; FIG. 1). At the end of the first experiment, all infusions were halted with the exception of glucose, which was infused as needed to restore euglycemia. Once that infusion was no longer required, the catheters and flow probes were placed back into subcutaneous pockets under general anesthesia. After the second experiment, animals were euthanized with pentobarbital, the abdomen was opened, and the positions of the catheter tips were verified.
The processing of blood samples has been described previously. Plasma glucose was analyzed using the glucose oxidase method (Analox Instruments). Insulin, glucagon, and C-peptide were measured using commercially available radioimmunoassay (RIA) kits from MilliporeSigma, and cortisol was measured using an RIA protocol developed by the Vanderbilt University Medical Center Hormone Assay & Analytical Services Core using an in-house antibody (gift from W. Nicholson) and 125I-cortisol (MP Biomedicals). Catecholamines were measured using high-performance liquid chromatography, while NEFA (FUJIFILM Medical Systems) and lactate and glycerol concentrations were measured using fluorometric assays.
Hepatic blood flow was measured using ultrasonic flow probes (Transonic Systems). Net hepatic glucose balance (NHGB), hepatic sinusoidal insulin and glucagon levels, and non-hepatic glucose uptake were calculated as described previously, while plasma glucose levels were converted to whole blood values for the calculation of NHGB. Glucagon was measured every 30 minutes during Pd1 and Pd2, and those data are expressed as absolute values and as Δ AUC. […]

[1] = dogs; cited from earlier work
[2] = humans; cited from earlier work
[3] = in vivo; cited from earlier work

Question: Which “glucagon secretion during euglycemic/hyperinsulinemic conditions (words)” value (adult mongrel dogs) does the source give for “EVEDLQVRDVELAGAPGEGGLQPLALEGALQ [C-peptide]” here?
Answer: preserved glucagon secretion; also recorded: prevented the expected decline in glucagon secretion; also recorded: preserves basal glucagon secretion

Question: And the “glucagon secretion during euglycemic/hyperinsulinemic conditions (words)” value (adult mongrel dogs; listed as CPEP)?
Answer: glucagon secretion decreased less

Question: What about the “glucagon secretion during hypoglycemic/hyperinsulinemic conditions” value (adult mongrel dogs; Pd2, IV C-peptide with insulin vs IV saline with insulin) of the same sequence?
Answer: doubled glucagon secretion

Question: What about the “reduction in exogenous glucose required to sustain the plasma glucose at 50 mg/dL vs SAL” value (adult mongrel dogs; final 90 minutes of Pd2) of the same sequence?
Answer: 47%

Question: And the “exogenous glucose infusion rate (GIR) AUC” value (adult mongrel dogs; final 90 minutes of Pd2, glucose clamped at 50 mg/dL, mean ± SEM)?
Answer: 37 ± 16 mg/kg × 90 minutes

Question: And the “impact on net hepatic uptake of NEFA and glycerol” value (adult mongrel dogs; hyperinsulinemia of Pd1)?
Answer: no additional impact

Question: What about the “impact on lipolysis (NEFA and glycerol levels)” value (adult mongrel dogs; hypoglycemia, Pd2) of the same sequence?
Answer: no impact on lipolysis

Question: And the “increase in glucagon secretion in the CPEP group compared with SAL” value (adult mongrel dogs; insulin-induced hypoglycemia (Pd2), IV C-peptide 10 pmol/kg/min with insulin 1 mU/kg/min)?
Answer: 2 fold

Question: And the “epinephrine, norepinephrine and cortisol levels, SAL vs CPEP” value (adult mongrel dogs; insulin-induced hypoglycemia, Pd2)?
Answer: no significant difference between treatments

Question: What about the “increase in net hepatic glucose output (net HGP) vs SAL” value (adult mongrel dogs; insulin-induced hypoglycemia, final 90 minutes of Pd2) of the same sequence?
Answer: 75%

Question: What about the “increase in net hepatic glucose output (net HGP) vs SAL” value (adult mongrel dogs; insulin-induced hypoglycemia, final 90 minutes of Pd2, listed as CPEP) of the same sequence?
Answer: 75% and 73%

Question: What about the “clearance rate of C-peptide” value [1] of the same sequence?
Answer: ~ 11.6 mL/kg/min

Question: What about the “clearance rate of C-peptide” value [2] of the same sequence?
Answer: ~ 4.4 mL/kg/min

Question: What about the “C-peptide extraction by the liver as share of its clearance” value [3] of the same sequence?
Answer: approximately 5%
